Measurements: US20220146526A1, “METHOD FOR EVALUATING SAMPLE, ANALYSIS METHOD, METHOD FOR DETECTING DEGRADED SAMPLE, MARKER FOR DETECTING DEGRADED BLOOD PLASMA SAMPLE, AND MARKER FOR DETECTING DEGRADED SERUM SAMPLE” (SHIMADZU CORPORATION, priority 2019, published 2022)

Assays:
Format in all cases: physicochemical, human
[1] = LC/MS of serum sample: time from blood collection to centrifugation (Table J); settings: for Rate of increase or decrease: detection intensity relative to 1 at 15 minutes; for Increase or decrease / Time when compound is affected: serum sample, LC/MS; for Increase or decrease: detection intensity vs 15 minutes from blood collection to centrifugation; for Time when compound is affected: time from blood collection to centrifugation, detection intensity changed by 30% or more vs 15 minutes
Outline: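 Detection intensities are expressed relative to 1 for samples centrifuged 15 min after blood collection; centrifugation was at room temperature, 3500 rpm, 5 min. Frozen serum was run by electrospray LC-MS in MRM mode, with 0.1% formic acid water/acetonitrile at 0.25 mL/min on a 40 °C F5 column.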

[2] = LC/MS of blood plasma sample: time from blood collection to centrifugation (Table D); settings: blood collection to centrifugation; for Rate of increase or decrease: detection intensity relative to 1 at 15 minutes; for Increase or decrease: detection intensity
Outline: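 Detection intensities are expressed relative to samples centrifuged 15 min after collection (=1), measured by electrospray LC/MS in MRM mode (Discovery HS F5-3, 40 °C, formic acid water/acetonitrile gradient at 0.25 mL/min). EDTA blood from a healthy donor was held at 4 °C, centrifuged at 4 °C, 3000 rpm, 15 min, and plasma frozen.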

[3] = LC/MS of serum sample: number of times of freezing and thawing (Table M); parameters: key to Rate of increase or decrease: detection intensity relative to 1 at 2 freeze-thaw cycles; settings: for Number of times when compound is affected / Increase or decrease: serum sample, LC/MS; for Number of times when compound is affected: detection intensity changed by 30% or more vs 2 times of freezing and thawing; for Increase or decrease: detection intensity vs 2 times of freezing and thawing
Outline: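 Values are detection intensities relative to serum thawed twice, versus 4, 6 or 10 freeze-thaw cycles. Serum came from blood spun at room temperature, 3500 rpm for 5 minutes. Analysis: electrospray LC/MS in MRM mode, Discovery HS F5-3 column, 40° C, 0.1% formic acid in water and acetonitrile.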

[4] = LC/MS of blood plasma sample: time from blood collection to cooling of blood (Table E); parameters: key to Rate of increase or decrease / Rate of increase or decrease (first value, increase): detection intensity relative to ≤1 min to cooling = 1; settings: for Increase or decrease: detection intensity, blood collection to cooling 5 minutes or more vs 1 minute or less; for Rate of increase or decrease (second value, decrease) / Rate of increase or decrease (first value, increase): different from individual to individual, relative to 1 at 1 minute or less, collection to cooling 5 minutes; for Rate of increase or decrease (second value, decrease): individuals with decrease; for Rate of increase or decrease (first value, increase): individuals with increase; for Rate of increase or decrease: detection intensity relative to 1 at 1 minute or less, blood collection to cooling 5 minutes
Protocol: At room temperature, 5 mL of blood from a healthy subject was taken into a blood-collecting vessel containing EDTA, and the blood-collecting vessel was inverted for mixing, then cooled, and allowed to stand at 4° C. Here, in order to investigate how the detection intensity of molecules contained in the sample was affected in a case where the time to cooling was set to 5 minutes or more as compared to that in a case where the time to cooling was set to 1 minute or less, preparations were performed under both the former condition and the latter condition. After standing, the blood sample was subjected to centrifugation under a condition of 4° C., 3000 rpm, and 15 minutes. […] After centrifugation, the blood-collecting vessel was left to stand at room temperature for 30 minutes, and the blood plasma was isolated during this 30 minutes. The obtained blood plasma sample was frozen and stored. Here, in order to investigate how the detection intensity of molecules contained in the sample was affected in cases where freezing and thawing was performed 4 times, 6 times, and 10 times after freezing as compared to that in a case where freezing and thawing was performed 2 times after freezing, freezing and thawing was performed under the respective conditions of 2, 4, 6, and 10 times.
Frozen blood plasma samples and serum samples were subjected to GC/MS or LC/MS. In GC/MS, the blood plasma samples and serum samples were subjected to methoxymation and trimethylsilylation and then introduced to GC-MS.
Analysis column: Discovery HS F5-3 (inner diameter of 2.1 mm, length of 150 mm, film thickness of 3 μm) (Sigma-Aldrich)
Column temperature: 40° C.
(A) 0.1% formic acid (dissolved in water)
(B) 0.1% formic acid (dissolved in acetonitrile)
Flow velocity: 0.25 mL/min
Ionization method: electrospray
Temperature: • Desolvation Line (DL) temperature: 250° C. • Heat block temperature: 400° C. • Interface temperature: 300° C.
Gas flow rate: • Nebulizer gas flow rate: 3.0 L/min • Drying gas flow rate: 10.0 L/min • Heating gas flow rate: 10.0 L/min
Mode: multiple reaction monitoring (MRM)
The rate of increase or decrease in Table E is the value of detection intensity relative to 1 that is the detection intensity in a case where the time from blood collection to cooling is set to 1 minute or less.

[5] = LC/MS of serum sample: time from centrifugation to isolation (Table K); parameters: key to Rate of increase or decrease: detection intensity relative to the 30-minute value set as 1; settings: for Rate of increase or decrease: detection intensity relative to 1 at 30 minutes; for Increase or decrease / Time when compound is affected: serum sample, LC/MS; for Increase or decrease: detection intensity vs 30 minutes from centrifugation to isolation; for Time when compound is affected: time from centrifugation to isolation, detection intensity changed by 30% or more vs 30 minutes
Outline: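 Serum left at room temperature 30 min, 1 h or 6 h between centrifugation (3500 rpm, 5 min, room temperature) and isolation, then frozen and analysed by LC/MS (Discovery HS F5-3 column, 40° C., 0.1% formic acid water/acetonitrile, electrospray, MRM). Values are detection intensity relative to the 30-min condition set to 1.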

[6] = LC/MS of blood plasma sample: number of times of freezing and thawing (Table F); settings: for Increase or decrease: detection intensity; for Rate of increase or decrease (second value, decrease) / Rate of increase or decrease (first value, increase): different from individual to individual, relative to 1 at 2 times, freezing and thawing 6 times; for Rate of increase or decrease (second value, decrease): individuals with decrease; for Rate of increase or decrease (first value, increase): individuals with increase; for Rate of increase or decrease: detection intensity relative to 1 at 2 times
Outline: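 Values are detection intensities normalised to 1 for plasma thawed twice, compared against 4, 6 and 10 freeze-thaw cycles. Measured by electrospray LC/MS in MRM mode, formic acid water/acetonitrile mobile phase, column at 40° C. Plasma came from EDTA blood, cooled to 4° C and spun at 3000 rpm for 15 min.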

[7] = after 4 hours from blood collection to centrifugation
[8] = 4 times of freezing and thawing, detection intensity relative to 1 at 2 times
[9] = after 1 hour from centrifugation to isolation
[10] = freezing and thawing 6 times vs 2 times
[11] = 10 times of freezing and thawing, detection intensity relative to 1 at 2 times
[12] = after 6 hours from centrifugation to isolation
[13] = freezing and thawing 4 times vs 2 times

Row | Structure (SMILES) | Rate of increase or decrease [1, 7] | Increase or decrease [1] | Time when compound is affected [1] | Rate of increase or decrease ([2]; after 4 hours) | Increase or decrease ([2]; after 4 hours vs 15 minutes) | Rate of increase or decrease [3, 8] | Number of times when compound is affected [3] [times] | Increase or decrease [3] | Increase or decrease [4] | Rate of increase or decrease (second value, decrease) [4] | Rate of increase or decrease (first value, increase) [4] | Rate of increase or decrease [5, 9] | Increase or decrease [5] | Time when compound is affected [5] | Increase or decrease [6, 10] | Rate of increase or decrease (second value, decrease) [6] | Rate of increase or decrease (first value, increase) [6] | Rate of increase or decrease [3, 11] | Rate of increase or decrease [4] | Rate of increase or decrease [5, 12] | further results
1 | Nc1ccn([C@@H]2O[C@H](CO)[C@@H](O)[C@H]2O)c(=O)n1 [Cytidine] | 0.62 | Decrease | After 4 hours | 1.95 | Increase | 1.52 | 4 | Increase | Different from individual | 0.46 | 2.56 | 0.70 | Decrease | After 1 hour hours | Different from individual | 0.30 | 1.54 | – | – | – | –
2 | N[C@@H](CC(=O)O)C(=O)O [Aspartic acid] | 2.10 | Increase | After 4 hours | – | – | – | 10 | Decrease | Increase | – | – | – | Increase | After 6 hours | – | – | – | 0.53 | 1.93 | 2.40 | Rate of increase or decrease ([2]; after 6 hours): 1.46; Increase or decrease ([2]; after 6 hours vs 15 minutes): Increase; Rate of increase or decrease ([6]; freezing and thawing 10 times): 1.76; Increase or decrease ([6]; freezing and thawing 10 times vs 2 times): Increase
3 | N[C@@H](CS)C(=O)O [Cysteine] | – | Increase | After 6 hours | 1.33 | Increase | 1.37 | 4 | Increase | Increase | – | – | – | Decrease | After 6 hours | – | – | – | – | 1.67 | 0.61 | Rate of increase or decrease ([1]; after 6 hours from blood collection to centrifugation): 1.39; Rate of increase or decrease ([6]; freezing and thawing 4 times): 1.99; Increase or decrease [6, 13]: Increase
4 | Nc1ncnc2c1ncn2[C@@H]1O[C@H](CSCC[C@H](N)C(=O)O)[C@@H](O)[C@H]1O [S-adenosylhomocysteine] | 2.82 | Increase | After 4 hours | 0.66 | Decrease | – | 6 | Different from individual | Different from individual | 0.49 | 1.40 | 1.51 | Increase | After 1 hour hours | – | – | – | – | – | – | Rate of increase or decrease ([3]; 6 times of freezing and thawing, relative to 1 at 2 times, different from individual to individual, first value (increase)): 1.62; Rate of increase or decrease ([3]; 6 times of freezing and thawing, relative to 1 at 2 times, different from individual to individual, second value (decrease)): 0.49; Rate of increase or decrease ([6]; freezing and thawing 4 times): 2.09; Increase or decrease [6, 13]: Increase
5 | NCCc1c[nH]c2ccc(O)cc12 [Serotonin] | – | – | – | 2.95 | Increase | – | 10 | Decrease | Different from individual | 0.63 | 1.62 | 0.52 | Decrease | After 1 hour hours | Different from individual | 0.68 | 1.57 | 0.65 | – | – | –
6 | OC[C@H]1O[C@@H](n2cnc3c(O)ncnc32)[C@H](O)[C@@H]1O [Inosine] | 0.17 | Decrease | After 4 hours | 2.26 | Increase | 1.44 | 4 | Increase | Different from individual | 0.64 | 18.25 | 0.61 | Decrease | After 1 hour hours | Different from individual | 0.53 | 1.67 | – | – | – | –
